# From patent US20240199676A1, “ANTIVIRAL COMPOUNDS AND METHODS OF MAKING AND USING THE SAME” (Gilead Sciences, Inc., priority 2022, published 2024)
# Columns and labels:
# [1] = GI S9 stability (Ex. Z), human intestinal S9; assay type: in vitro ADME; settings: pooled intestinal S9 fractions; human intestinal S9, 1.0 mg/mL protein, 2 μM substrate, pH 7.4; read-out: GIS9 Human T½ (per Ex. Z)
# Method: Example Z: GI S9 stability data:
# Stock solutions of test compounds in dimethyl sulfoxide (DMSO) having a final concentration of 10 mM were prepared and used in all experiments. Sekisui XenoTech (Kansas City, KS) provided pooled intestinal S9 fractions. All other chemicals were purchased from Sigma-Aldrich (St. Louis, MO) or VWR (West Chester, PA). Internal Standard/Quench (IS/Q) used to stop reactions was 100 nM labetalol in (by volume) methanol (10%) and acetonitrile (90%).
# Stability in Intestinal S9 Fractions: Duplicate aliquots of test compound or positive control substrate were added to S9 stock diluted with phosphate buffered saline (137 mM NaCl, 2.7 mM KCl, 10 mM phosphate buffer), pH 7.4, to obtain a protein concentration of 1.0 mg/mL. The metabolic reactions were initiated by the addition of the substrates to the S9 reaction mixture to a final concentration of 2 μM. At 0, 10, 20, 30, 60 and 120 min, 25 μL aliquots of the reaction mixture were transferred to plates containing 225 μl of IS/Q solution. After quenching, the plates were centrifuged at 3000×g for 30 minutes. 150 μL aliquots of each supernatant were dried down then reconstituted with 300 μL water. Aliquots (10 μL) of the prepared samples were analyzed on a Thermo Q-Exactive mass spectrometer as described below.
# Liquid Chromatography—Mass Spectrometry: Quantification of test compounds and control substrate was performed by analyte/internal standard peak area ratio (PAR) values measured on a Thermo Q-Exactive mass spectrometer coupled to a Dionex UltiMate 3000 HPLC with a Leap Technologies HTC PAL autosampler. The column used for analysis was a Waters Acquity BEH C18 (1.7 μm particle size, 2.1×50 mm). Mobile phase A consisted of 0.1% (v/v) formic acid in water. Mobile phase B consisted of 0.1% (v/v) formic acid in acetonitrile. Elution of analytes was achieved by a series of linear gradients varying the proportions of A and B. The mass spectrometer was calibrated on a weekly basis and mass tolerance of 5 ppm was used.
# Metabolic stabilities in S9 fractions were determined by measuring the rates of disappearance of test compound and positive control substrate.
# Data (% of substrate remaining) were plotted on a semi-log scale and fitted using an exponential decline model:
# Where Ct—% of substrate remaining at time=t; C0—% of substrate remaining at time=0; t—time; T½—half-life The Half-life (T½) is determined by the following equation: […]
# Assuming a first-order reaction, the slope (k) is extrapolated from the aforementioned plotted data.
# [2] = system: Respiratory syncytial virus recombinant with luciferase (RSV-Luc5) in HEp-2 cells; test: HEp-2 RSV-Luc5 384-well Assay (EC50 RSVFLUC Hep2-384 v2, Ex. V); assay type: cell-based; settings: human respiratory syncytial virus, HEp-2, 72 h, read-out: EC50 RSV FLuc Hep-2 384 V2 (per Ex. V)
# Excerpt: Example V: HEp-2 RSV-Luc5 384-well Assay (EC50 RSVFLUC Hep2-384 v2)
# HEp-2 cell line was purchased from ATCC (Manassas, VA Cat #CCL-23) and maintained in Dulbecco's […] (DMEM) (Corning, New York, NY, Cat #15-018CM) supplemented with 10% fetal bovine serum (FBS) (Hyclone, Logan, UT, Cat #SH30071-03) and 1× Penicillin-Streptonycin-L-Glutamine (Corning, New York, NY, Cat #30-009-CI). Cells were passaged 2 times per week to maintain sub-confluent densities and were used for experiments at passage 5-20. Respiratory syncytial virus recombinant with luciferase (RSV-Luc5) (≥1 ×107 TCID50/ml) was purchased from Microbiologics (Saint Cloud, MN). Viral replication was determined in HEp-2 cells in the following manner.
# Compounds are prepared in 100% DMSO in 384-well polypropylene plates (Greiner, Monroe, NC, Cat #784201) with 8 compounds per plate in grouped replicates of 4 at 10 serially diluted concentrations (1:3). The serially diluted compounds were transferred to low dead volume Echo plates (Labcyte, Sunnyvale, CA, Cat #LP-0200).
# The test compounds were spotted to 384-well assay plates (Greiner, Monroe, NC, Cat#781091) at 200 nL per well. HEp-2 cells were harvested and suspended in DMEM (supplemented with 10% FBS and 1× Penicillin-Streptonycin-L-Glutamine) and seeded to the pre-spotted assay plates at 4,000 cells per well in 30 μL. RSV-Luc5 viruses were diluted in DMEM (supplemented with 10% FBS and 1× Penicillin-Streptomycin-L-Glutamine) at 200,000 Infectious Units (IU) per mL and 10 μL per well was added to the assay plates containing cells and compounds, for an MOI=0.5. The assay plates were incubated for 3 days at 37° C. and 5% CO2. At the end of incubation, One-Glo reagent (Promega, Madison, WI, Cat #E6120) was prepared. The assay plates and One-Glo reagent were equilibrated to room temperature for at least 15 minutes. 40 μL per well of One-Glo reagent was added and the plates were incubated at room temp for 15 minutes before reading the luminescence signal on an EnVision multimode plate reader (Perkin Elmer, Waltham, MA). Remdesivir was used as positive control and DMSO was used as negative control. Values were normalized to the positive and negative controls (as 0% and 100% replication, respectively) and data was fitted using non-linear regression analysis by Gilead's dose response tool. The EC50 value for each compound was then determined as the concentration reducing the viral replication by 50%.
Compound,half-life at 2 μM [1] [min],EC50 [2] [µM]
"CCC(CC)C(=O)Nc1ncnn2c([C@@H]3O[C@](C#N)(COC(=O)C(CC)CC)[C@@H](O)[C@H]3O)ccc12 [Compound 11, ((2R,3S,4R,5S)-2-cyano-5-(4-(2-ethylbutanamido)pyrrolo[2,1-f][1,2,4]triazin-7-yl)-3,4-dihydroxytetrahydrofuran-2-yl)methyl 2-ethylbutanoate]",56,41.5
"CC(C)[C@H](N)C(=O)OC[C@@]1(C#N)O[C@@H](c2ccc3c(N)ncnn23)[C@H](O)[C@@H]1O [Compound 12, ((2R,3S,4R,5S)-5-(4-aminopyrrolo[2,1-f][1,2,4]triazin-7-yl)-2-cyano-3,4-dihydroxytetrahydrofuran-2-yl)methyl L-valinate]",2,19.2
"CC(C)(C)CC(=O)OC[C@@]1(C#N)O[C@@H](c2ccc3c(N)ncnn23)[C@H](O)[C@@H]1O [Compound 13, ((2R,3S,4R,5S)-5-(4-aminopyrrolo[2,1-f][1,2,4]triazin-7-yl)-2-cyano-3,4-dihydroxytetrahydrofuran-2-yl)methyl 3,3-dimethylbutanoate]",789,50
"Cc1ccc(C(=O)OC[C@@]2(C#N)O[C@@H](c3ccc4c(N)ncnn34)[C@H](O)[C@@H]2O)cc1 [Compound 14, ((2R,3S,4R,5S)-5-(4-aminopyrrolo[2,1-f][1,2,4]triazin-7-yl)-2-cyano-3,4-dihydroxytetrahydrofuran-2-yl)methyl 4-methylbenzoate]",25,22
"CC1(C(=O)OC[C@@]2(C#N)O[C@@H](c3ccc4c(N)ncnn34)[C@H](O)[C@@H]2O)CC1 [Compound 15, ((2R,3S,4R,5S)-5-(4-aminopyrrolo[2,1-f][1,2,4]triazin-7-yl)-2-cyano-3,4-dihydroxytetrahydrofuran-2-yl)methyl 1-methylcyclopropane-1-carboxylate]",104,31.6
"N#C[C@]1(COC(=O)CC2CCC2)O[C@@H](c2ccc3c(N)ncnn23)[C@H](O)[C@@H]1O [Compound 16, ((2R,3S,4R,5S)-5-(4-aminopyrrolo[2,1-f][1,2,4]triazin-7-yl)-2-cyano-3,4-dihydroxytetrahydrofuran-2-yl)methyl 2-cyclobutylacetate]",14,18.3
"CC1(C)CC(C(=O)OC[C@@]2(C#N)O[C@@H](c3ccc4c(N)ncnn34)[C@H](O)[C@@H]2O)C1 [Compound 17, ((2R,3S,4R,5S)-5-(4-aminopyrrolo[2,1-f][1,2,4]triazin-7-yl)-2-cyano-3,4-dihydroxytetrahydrofuran-2-yl)methyl 3,3-dimethylcyclobutane-1-carboxylate]",13,19.7
"N#C[C@]1(COC(=O)C2CCCC2)O[C@@H](c2ccc3c(N)ncnn23)[C@H](O)[C@@H]1O [Compound 18, ((2R,3S,4R,5S)-5-(4-aminopyrrolo[2,1-f][1,2,4]triazin-7-yl)-2-cyano-3,4-dihydroxytetrahydrofuran-2-yl)methyl cyclopentanecarboxylate]",8,23.3
"N#C[C@]1(COC(=O)C2CCCCC2)O[C@@H](c2ccc3c(N)ncnn23)[C@H](O)[C@@H]1O [Compound 19, ((2R,3S,4R,5S)-5-(4-aminopyrrolo[2,1-f][1,2,4]triazin-7-yl)-2-cyano-3,4-dihydroxytetrahydrofuran-2-yl)methyl cyclohexanecarboxylate]",13,18
"CC(C)C(=O)OC[C@@]1(C#N)O[C@@H](c2ccc3c(N)ncnn23)[C@H](OC(=O)C(C)C)[C@@H]1OC(=O)C(C)C [Compound 20, (2R,3S,4S,5S)-5-(4-aminopyrrolo[2,1-f][1,2,4]triazin-7-yl)-2-cyano-2-((isobutyryloxy)methyl)tetrahydrofuran-3,4-diyl bis(2-methylpropanoate)]",3,29.9
